Measured values: ChEMBL document CHEMBL2384934, “Discovery of 3-phenyl-1H-5-pyrazolylamine derivatives containing a urea pharmacophore as potent and efficacious inhibitors of FMS-like tyrosine kinase-3 (FLT3)” (Bioorg Med Chem, 2013)

Columns and labels:
[1] = target: Vascular endothelial growth factor receptor 2 (Homo sapiens, UniProt P35968); assay: biochemical; type: cell-based, Sf9
Description: Inhibition of recombinant GST tagged VEGFR2 (789 to 1356) (unknown origin) transfected in insect sf9 cells after 120 mins by wallac counting analysis

[2] = target: T1, Receptor-type tyrosine-protein kinase FLT3 (Homo sapiens, UniProt P36888); assay: biochemical; type: cell-based, Sf9
T1 sequence (P36888 whole entry): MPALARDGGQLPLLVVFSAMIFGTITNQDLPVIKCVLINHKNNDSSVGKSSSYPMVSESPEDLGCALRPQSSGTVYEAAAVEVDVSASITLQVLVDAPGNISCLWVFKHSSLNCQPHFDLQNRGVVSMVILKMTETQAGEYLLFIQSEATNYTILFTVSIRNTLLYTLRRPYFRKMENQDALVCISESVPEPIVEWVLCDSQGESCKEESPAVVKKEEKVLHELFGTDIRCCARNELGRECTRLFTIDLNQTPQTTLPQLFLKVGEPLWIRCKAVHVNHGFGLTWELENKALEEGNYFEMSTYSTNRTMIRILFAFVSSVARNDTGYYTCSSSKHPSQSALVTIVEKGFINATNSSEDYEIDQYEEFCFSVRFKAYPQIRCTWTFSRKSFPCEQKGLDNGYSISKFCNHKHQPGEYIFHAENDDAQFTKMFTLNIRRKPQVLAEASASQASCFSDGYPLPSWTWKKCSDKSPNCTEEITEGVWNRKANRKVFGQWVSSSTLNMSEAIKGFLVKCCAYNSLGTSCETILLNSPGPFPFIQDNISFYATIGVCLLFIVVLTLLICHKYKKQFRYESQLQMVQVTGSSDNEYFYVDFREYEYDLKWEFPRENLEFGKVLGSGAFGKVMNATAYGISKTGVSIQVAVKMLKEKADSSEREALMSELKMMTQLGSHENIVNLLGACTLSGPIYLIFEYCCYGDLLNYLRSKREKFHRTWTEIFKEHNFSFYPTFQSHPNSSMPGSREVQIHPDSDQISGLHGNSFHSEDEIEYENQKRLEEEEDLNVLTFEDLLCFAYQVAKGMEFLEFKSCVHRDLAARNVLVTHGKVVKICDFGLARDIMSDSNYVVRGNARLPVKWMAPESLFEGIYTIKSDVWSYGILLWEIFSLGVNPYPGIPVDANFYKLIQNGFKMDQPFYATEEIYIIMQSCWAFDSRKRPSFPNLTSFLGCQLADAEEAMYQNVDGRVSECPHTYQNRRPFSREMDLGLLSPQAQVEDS
Description: Inhibition of wild type GST tagged FLT3 kinase (567 to 993) (unknown origin) transfected in insect sf9 cells after 4 hrs by wallac counting analysis

MOLM-13 = assay: cells; conditions: Homo sapiens, MOLM-13, 72 h
Aurora kinase A = target: T2, Aurora kinase A (Homo sapiens, UniProt O14965); assay: biochemical
T2 sequence (O14965 whole entry): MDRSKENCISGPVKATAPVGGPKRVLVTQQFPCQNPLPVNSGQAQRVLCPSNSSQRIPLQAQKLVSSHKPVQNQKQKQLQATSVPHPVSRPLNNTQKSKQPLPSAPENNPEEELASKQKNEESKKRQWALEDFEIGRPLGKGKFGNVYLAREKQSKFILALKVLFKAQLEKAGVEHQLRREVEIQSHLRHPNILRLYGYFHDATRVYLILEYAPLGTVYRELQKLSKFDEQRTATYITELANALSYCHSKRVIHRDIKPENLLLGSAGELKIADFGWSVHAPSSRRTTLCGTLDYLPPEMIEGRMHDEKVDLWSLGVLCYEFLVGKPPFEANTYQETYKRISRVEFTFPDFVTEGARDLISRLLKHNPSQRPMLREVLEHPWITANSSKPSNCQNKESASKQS
Description: Inhibition of recombinant GST tagged Aurora A kinase (123 to 401) (unknown origin) transfected in insect sf9 cells after 90 mins by wallac counting analysis

[3] = AUC (0 to infinity) in Sprague-Dawley rat at 2 mg/kg, iv; type: ADME, organism-based; parameters: time infinity, dose 2 mg/kg, route intravenous; conditions: plasma
[4] = Volume of distribution at steady state in Sprague-Dawley rat at 2 mg/kg, iv; type: ADME, organism-based; parameters: dose 2 mg/kg, route intravenous; conditions: in vivo, read-out: Vdss
[5] = Plasma clearance in Sprague-Dawley rat at 2 mg/kg, iv; type: ADME, organism-based; parameters: dose 2 mg/kg, route intravenous
[6] = Half life in Sprague-Dawley rat at 2 mg/kg, iv; type: ADME, organism-based; parameters: dose 2 mg/kg, route intravenous; conditions: in vivo
[7] = Oral bioavailability in Sprague-Dawley rat at 10 mg/kg; type: ADME, organism-based; conditions: in vivo

Chain of Vascular endothelial growth factor receptor 2 (P35968 whole entry): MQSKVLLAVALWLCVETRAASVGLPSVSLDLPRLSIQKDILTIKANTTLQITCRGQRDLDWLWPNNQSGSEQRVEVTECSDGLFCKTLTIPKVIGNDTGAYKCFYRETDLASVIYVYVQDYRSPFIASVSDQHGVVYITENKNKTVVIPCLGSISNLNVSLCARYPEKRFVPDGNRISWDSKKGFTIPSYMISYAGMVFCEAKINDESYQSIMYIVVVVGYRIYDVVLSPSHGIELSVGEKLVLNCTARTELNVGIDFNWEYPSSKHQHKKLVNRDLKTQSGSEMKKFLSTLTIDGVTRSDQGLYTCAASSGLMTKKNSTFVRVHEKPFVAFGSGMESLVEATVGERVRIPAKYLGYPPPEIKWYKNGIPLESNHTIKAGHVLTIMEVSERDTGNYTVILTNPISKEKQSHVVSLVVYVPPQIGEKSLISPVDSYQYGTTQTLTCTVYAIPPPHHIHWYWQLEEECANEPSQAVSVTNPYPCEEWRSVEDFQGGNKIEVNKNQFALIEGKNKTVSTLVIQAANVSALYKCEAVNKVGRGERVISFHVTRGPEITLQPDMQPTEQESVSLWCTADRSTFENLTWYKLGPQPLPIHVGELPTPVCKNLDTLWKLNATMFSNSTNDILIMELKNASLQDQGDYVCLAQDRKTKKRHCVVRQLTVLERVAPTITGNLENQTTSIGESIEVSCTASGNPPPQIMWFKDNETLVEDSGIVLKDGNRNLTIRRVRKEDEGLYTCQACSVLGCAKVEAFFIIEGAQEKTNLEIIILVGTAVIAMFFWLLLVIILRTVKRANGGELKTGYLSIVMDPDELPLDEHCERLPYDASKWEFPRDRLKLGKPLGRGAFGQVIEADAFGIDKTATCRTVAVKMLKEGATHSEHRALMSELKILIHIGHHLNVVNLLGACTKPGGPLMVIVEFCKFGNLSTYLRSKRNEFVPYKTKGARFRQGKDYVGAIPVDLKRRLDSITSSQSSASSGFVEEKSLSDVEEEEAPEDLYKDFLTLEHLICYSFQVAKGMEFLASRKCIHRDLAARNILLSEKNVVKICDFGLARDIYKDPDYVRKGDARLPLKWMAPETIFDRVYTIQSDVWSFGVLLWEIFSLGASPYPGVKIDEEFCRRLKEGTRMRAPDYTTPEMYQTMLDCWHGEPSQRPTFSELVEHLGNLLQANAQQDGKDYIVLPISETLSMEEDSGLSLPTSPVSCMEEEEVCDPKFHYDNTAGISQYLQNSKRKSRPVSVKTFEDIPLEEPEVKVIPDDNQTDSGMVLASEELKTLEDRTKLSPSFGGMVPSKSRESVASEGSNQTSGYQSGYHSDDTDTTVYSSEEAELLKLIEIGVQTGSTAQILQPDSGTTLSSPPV

| SMILES | IC50 [1] [nM] | IC50 [2] [nM] | GI50 (MOLM-13) [nM] | IC50 (Aurora kinase A) [nM] | AUC(0-inf) [3] [ng·h/mL] | Vd [4] [L/kg] | clearance [5] [mL/min/kg] | half-life [6] [h] | bioavailability [7] [%] |
| --- | --- | --- | --- | --- | --- | --- | --- | --- | --- |
| CN1CCN(c2ccc(C(=O)Nc3cc(-c4ccc(NC(=O)Nc5cc(C(C)(C)C)on5)cc4)n[nH]3)cc2)CC1 | 12 | 30 | 5 | 53 | – | – | – | – | – |
| O=C(NCc1ccc(-c2cc(NC(=O)c3ccc(OCCN4CCOCC4)cc3)[nH]n2)cc1)Nc1ccc(Cl)cc1 | 71 | 16 | 3 | > 1000 | – | – | – | – | – |
| O=C(NCc1ccc(-c2cc(NC(=O)c3ccc(OCCN4CCCC4)cc3)[nH]n2)cc1)OCc1ccccc1 | – | – | 2 | – | – | – | – | – | – |
| Cc1nc(Nc2cc(-c3ccc(NC(=O)Nc4ccccc4)cc3)n[nH]2)cc(N2CCN(C)CC2)n1 | 620 | 280 | 160 | 500 | – | – | – | – | – |
| Cc1nc(Nc2cc(-c3ccc(CNC(=O)Nc4cccc(Cl)c4)cc3)n[nH]2)cc(N2CCNCC2)n1 | 38 | 26 | 18 | 790 | – | – | – | – | – |
| Cc1nc(Nc2cc(-c3ccc(CNC(=O)Nc4cc(C)on4)cc3)n[nH]2)cc(N2CCN(C)CC2)n1 | 100 | 21 | 9 | 320 | – | – | – | – | – |
| CC(C)(C)c1cc(NC(=O)Nc2ccc(-c3cc(NC(=O)c4ccc(OCCN5CCOCC5)cc4)[nH]n3)cc2)no1 | 22 | 19 | 2 | 160 | – | – | – | – | – |
| CN1CCN(c2ccc(C(=O)Nc3cc(-c4ccc(NC(=O)Nc5ccccn5)cc4)n[nH]3)cc2)CC1 | 73 | 40 | 42 | 610 | – | – | – | – | – |
| Cc1cc(NC(=O)Nc2ccc(-c3cc(NC(=O)c4ccc(N5CCN(C)CC5)cc4)[nH]n3)cc2Cl)no1 | > 1000 | 390 | 7 | 600 | – | – | – | – | – |
| Cc1cc(NC(=O)NCc2ccc(-c3cc(NC(=O)c4ccc(N5CCN(C)CC5)cc4)[nH]n3)cc2)no1 | 50 | 13 | 2 | 940 | – | – | – | – | – |
| Cc1nc(Nc2cc(-c3ccc(CNC(=O)Nc4cc(C(C)(C)C)on4)cc3)n[nH]2)cc(N2CCN(C)CC2)n1 | 12 | 35 | 3 | 120 | – | – | – | – | – |
| Cc1cc(NC(=O)Nc2ccc(-c3cc(NC(=O)c4ccc(N5CCN(C)CC5)cc4)[nH]n3)cc2C)no1 | 38 | 9 | 1 | 250 | – | – | – | – | – |
| CCNC(=O)Nc1ccc(-c2cc(NC(=O)c3ccc(N4CCN(C)CC4)cc3)[nH]n2)cc1 | 100 | 94 | 33 | > 1000 | – | – | – | – | – |
| Cc1cc(-c2cc(NC(=O)c3ccc(CN4CCN(C)CC4)cc3)[nH]n2)ccc1NC(=O)Nc1cc(C(C)(C)C)on1 | – | – | – | – | 3020 | 10 | 11.3 | 17 | – |
| CN1CCN(Cc2ccc(C(=O)Nc3cc(-c4ccc(CNC(=O)Nc5cc(C(C)(C)C)on5)cc4)n[nH]3)cc2)CC1 | 18 | 4 | 3 | > 1000 | 2120 | 8 | 17.2 | 11 | – |
| CN1CCN(c2ccc(C(=O)Nc3cc(-c4ccc(NC(=O)N5CCCC5)cc4)n[nH]3)cc2)CC1 | > 1000 | 70 | 37 | > 1000 | – | – | – | – | – |

| SMILES | IC50 [1] [nM] | IC50 [2] [nM] | GI50 (MOLM-13) [nM] | IC50 (Aurora kinase A) [nM] | AUC(0-inf) [3] [ng·h/mL] | Vd [4] [L/kg] | clearance [5] [mL/min/kg] | half-life [6] [h] | bioavailability [7] [%] |
| --- | --- | --- | --- | --- | --- | --- | --- | --- | --- |
| Cc1nc(Nc2cc(-c3ccc(CNC(=O)Nc4cc(C(C)(C)C)on4)cc3)n[nH]2)cc(N2CCN(CCO)CC2)n1 | 50 | 95 | 5 | 490 | – | – | – | – | – |
| O=C(NCc1ccc(-c2cc(NC(=O)c3ccc(OCCN4CCOCC4)cc3)[nH]n2)cc1)Nc1ccccc1 | 54 | 9 | 3 | 760 | – | – | – | – | – |
| Cc1cnc(NC(=O)Nc2ccc(-c3cc(NC(=O)c4ccc(N5CCN(C)CC5)cc4)[nH]n3)cc2)s1 | 35 | 50 | 9 | 65 | – | – | – | – | – |
| CN1CCN(c2ccc(C(=O)Nc3cc(-c4ccc(NC(=O)Nc5ccccc5)cc4)n[nH]3)cc2)CC1 | 26 | 13 | 6 | 330 | – | – | – | – | – |
| CN1CCN(Cc2ccc(C(=O)Nc3cc(-c4ccc(NC(=O)Nc5cc(C(C)(C)C)on5)cc4)n[nH]3)cc2)CC1 | 12 | 8 | 1 | 160 | – | – | – | – | – |
| CC(C)(C)c1cc(NC(=O)Nc2ccc(-c3cc(NC(=O)c4ccc(OCCN5CCCC5)cc4)[nH]n3)cc2)no1 | 12 | 15 | 2 | 47 | – | – | – | – | – |
| Cc1nc(Nc2cc(-c3ccc(CNC(=O)Nc4cc(C)on4)cc3)n[nH]2)cc(N2CCN(CCO)CC2)n1 | 120 | 17 | 16 | 98 | – | – | – | – | – |
| Cc1cc(NC(=O)Nc2ccc(-c3cc(NC(=O)c4ccc(N5CCN(C)CC5)cc4)[nH]n3)cc2)no1 | 31 | 6 | 3 | 120 | – | – | – | – | – |
| Cc1cc(-c2cc(NC(=O)c3ccc(OCCN4CCOCC4)cc3)[nH]n2)ccc1NC(=O)Nc1cc(C(C)(C)C)on1 | 27 | 20 | 8 | 69 | 2860 | 4.7 | 13.9 | 5.3 | 4 |
| CN1CCN(c2ccc(C(=O)Nc3cc(-c4ccc(NC(=O)NC5CC5)cc4)n[nH]3)cc2)CC1 | 300 | 52 | 18 | > 1000 | – | – | – | – | – |
| CN1CCN(Cc2ccc(C(=O)Nc3cc(-c4ccc(CNC(=O)Nc5ccccc5)cc4)n[nH]3)cc2)CC1 | 82 | 22 | 4 | > 1000 | – | – | – | – | – |
| O=C(NCc1ccc(-c2cc(NC(=O)c3ccc(OCCN4CCOCC4)cc3)[nH]n2)cc1)Nc1ccc(F)cc1 | 130 | 66 | 5 | > 1000 | – | – | – | – | – |
| Cc1nc(Nc2cc(-c3ccc(CNC(=O)Nc4cc(C(C)(C)C)on4)cc3)n[nH]2)cc(N2CCNCC2)n1 | 85 | 26 | 8 | 710 | – | – | – | – | – |
| CN1CCN(c2ccc(C(=O)Nc3cc(-c4ccc(NC(=O)Nc5cccnc5)cc4)n[nH]3)cc2)CC1 | 190 | 74 | 22 | 300 | – | – | – | – | – |
| CN1CCN(c2ccc(C(=O)Nc3cc(-c4cccc(NS(=O)(=O)c5ccccc5)c4)n[nH]3)cc2)CC1 | – | 11 | 21 | – | – | – | – | – | – |
